The source of these data is publication PMC9170845, “Development of a multi faceted platform containing a tetrazine, fluorophore and chelator: synthesis, characterization, radiolabeling, and immuno-SPECT imaging” (EJNMMI Radiopharmacy and Chemistry, 2022).

Data set [1] in a line: Fluorescence characterization (excitation/emission spectra, absolute quantum yield). As to conditions: in DMSO (stated for 13); for fluorescence quantum yield (Φfl): absolute PLQY, integrating sphere. It is filed as physicochemical. The protocol:
Following the synthesis of the final scaffold, the excitation and emission spectrum, and quantum yield were measured for the uncomplexed scaffold DO3A-BODIPY-Tz (13) in DMSO (Fig. 1), where an excitation λmax = 524 nm, emission λmax = 537 nm and a fluorescence quantum yield (Φfl) of 0.38 was observed. There are reports of tetrazine residues deactivating the fluorescence properties of fluorophores when they belong to the same molecular entity. However, once the tetrazine is conjugated, these properties are reinstated (Oliveira et al. [2017]; Wu and Devaraj [2018]). To ensure this, 13 was conjugated to TCO-NHS 16 in DMSO (Scheme 2). A distinct colour change from red to orange was observed which clearly indicated tetrazine consumption. The fluorescence properties of 17 (see Additional file1: Fig. S36) were then measured and compared to 13 and 4,4′-dicyano-BODIPY (7) (see Additional file1: Fig. S35; λmax excitation = 527 nm, λmax emission = 541 nm, Φfl = 0.87).
Luminescence experiments were conducted on an Edinburgh Instruments FS5 spectrometer using the SC-05 cassette. All spectra were corrected for instrument response. Excitation and emission monochromator bandwidths for 7 and 17 were set to 1 nm, and 1.5 nm for 13. The emission spectrum for 13 was collected with the aid of a Knight Optical 395 nm long-pass filter to reduce the effects of scattering. Solution-based absolute photoluminescent quantum yields (PLQY) were obtained for 7, 13, and 17 via the SC-30 Integrating Sphere cassette with excitation wavelengths of 380, 490, and 378 nm respectively.

Data set [2] in a line: Stability of cyano BODIPY core in acidic conditions (TFA in CDCl3, 1H NMR). As to conditions: treated with TFA in CDCl3, monitored via 1H NMR, 11 days. It is filed as physicochemical. The text has this: Initially our scaffold design comprised of the conventional 4,4′-difluoro-BODIPY fluorophore (Additional file1: Scheme S1). Despite numerous attempts and alternative strategies for completing the synthesis of the platform using the F-BODIPY fluorophore, the route was unsuccessful resulting in either BF2 core removal or complete decomposition (see Additional File), despite there being reports in the literature of similar transformations being successful in the presence of F-BODIPY dyes (Alnajjar et al. [2018]; Tsuji et al. [2018]; Sui et al. [2016]; Compton et al. [2019]; Ieda et al. [2014]). […] The increased stability is believed to be a result of enhanced aromaticity, decreased charge density on the boron, and the formation of a stable 4,4′-dicyano-BODIPY-TFA complex. To the best of our knowledge there has only been one example of an investigation incorporating 4,4′-dicyano-BODIPYs into a chemical synthesis with protecting groups (Uriel et al. [2020]). To reassure the stability of the cyano BODIPY core in acidic conditions, 7 was treated with TFA in CDCl3 and monitored via ^1H NMR (see Additional file1: Fig. S11) (Wang et al. [2018]). […] An alternative route was initially investigated, where the Cbz on 9 underwent hydrogenolysis followed by insertion of the chelator, deprotection, then insertion of the tetrazine. […]

Structures are written as SMILES.

As for `CCC1=C(C)C2=C(c3ccc(C(=O)ON4C(=O)CCC4=O)cc3)c3c(C)c(CC)c(C)n3[B-](C#N)(C#N)[N+]2=C1C` [compound 7, 4,4-dicyano-8-(4-(succinimidocarboxy)phenyl)-2,6-diethyl-1,3,5,7-tetramethyl-4-bora-3a,4a-diaza-s-indacene], in data set [1], the “emission λmax” value is 541 nm, the “excitation λmax” value stood at 527 nm and the “fluorescence quantum yield (Φfl)” value came out at 0.87. Moreover, the “Stability in acidic conditions” value in data set [2] is reported as “no indication of instability even after 11 days”.
With `CCC1=C(C)C2=C(c3ccc(C(=O)NC(CCCCNC(=O)Cc4ccc(-c5nncnn5)cc4)C(=O)NC(CCCCNC(=O)CN4CCN(CC(=O)O)CCN(CC(=O)O)CCN(CC(=O)O)CC4)C(=O)O)cc3)c3c(C)c(CC)c(C)n3[B-](C#N)(C#N)[N+]2=C1C` [compound 13, 2,2′,2″-(10-(2-(((S)-5-((S)-6-(2-(4-(1,2,4,5-tetrazin-3-yl)phenyl)acetamido)-2-(4-(4,4-dicyano-2,6-diethyl-1,3,5,7-tetramethyl-4-bora-3a,4a-diaza-s-indacen-8-yl)benzamido)hexanamido)-5-carboxypentyl)amino)-2-oxoethyl)-1,4,7,10-tetraazacyclododecane-1,4,7-triyl)triacetic acid], in data set [1], the “emission λmax” value came out at 537 nm, the “excitation λmax” value is on record as 524 nm and the “fluorescence quantum yield (Φfl)” value turned out to be 0.38.
Take `CCC1=C(C)C2=C(c3ccc(C(=O)NC(CCCCNC(=O)Cc4ccc(C5=NNC=C6CCC(OC(=O)ON7C(=O)CCC7=O)CCCC65)cc4)C(=O)NC(CCCCNC(=O)CN4CCN(CC(=O)O)CCN(CC(=O)O)CCN(CC(=O)O)CC4)C(=O)O)cc3)c3c(C)c(CC)c(C)n3[B-](C#N)(C#N)[N+]2=C1C` (stereo not shown) [compound 17]: in data set [1], the “emission λmax” value is listed as 537 nm, the “excitation λmax” value is given as 525 nm and the “fluorescence quantum yield (Φfl)” value is listed as 0.79.
